Results published in ChEMBL document CHEMBL5226337, “Pyrazolopyrimidines as anticancer agents: A review on structural and target-based approaches” (Eur J Med Chem, 2021).
In brackets after ≈: the same amount, converted by molar mass.

Assays:
Maver1 = experiment: cells; conditions: Homo sapiens, Maver1, 72 h
Description: Anticancer activity against human MAVER-1 cells assessed as inhibition of cell proliferation measured after 72 hrs by Cell Titer-Glo Luminescent

HCT-116 [1] = experiment: Anticancer activity against human HCT-116 cells assessed as inhibition of cell proliferation measured after 48 hrs by MTT assay; format: functional, cell-based; conditions: HCT-116, 48 h
MCF7 [2] = experiment: Anticancer activity against human MCF7 cells assessed as inhibition of cell proliferation measured after 24 hrs by MTT assay; format: functional, cell-based; conditions: MCF7, 24 h
HeLa [3] = experiment: Anticancer activity against human HeLa cells assessed as inhibition of cell proliferation measured after 24 hrs by MTT assay; format: functional, cell-based
HT-29 = experiment: Anticancer activity against human HT-29 cells assessed as inhibition of cell proliferation measured after 16 hrs by MTT assay; format: functional, cell-based; conditions: HT-29, 16 h
KB = experiment: Anticancer activity against human KB cells assessed as inhibition of cell proliferation measured after 16 hrs by MTT assay; format: functional, cell-based
HepG2 [4] = experiment: Anticancer activity against human HepG2 cells assessed as inhibition of cell proliferation measured after 16 hrs by MTT assay; format: functional, cell-based; conditions: HepG2, 16 h
HepG2 [5] = experiment: Anticancer activity against human HepG2 cells assessed as inhibition of cell proliferation by MTT assay; format: functional, cell-based
KM12 = experiment: Anticancer activity against human KM12 cells assessed as inhibition of cell proliferation measured after 72 hrs by MTT assay; format: functional, cell-based; conditions: KM12, 72 h
[6] = Selectivity index, ratio of IC50 for cytotoxicity against FHC cells to IC50 for antiproliferative activity against KM12 cells; format: toxicity, cell-based; conditions: human; read-out: Ratio IC50
[7] = biological target: Tyrosine-protein kinase BTK (Homo sapiens, UniProt Q06187); experiment: Inhibition of human BTK using biotin as a substrate preincubated for 5 mins followed by substrate addition incubated for 30 mins in presence of ATP by fluorescence based assay
Ramos = experiment: Anticancer activity against human Ramos cells assessed as inhibition of cell proliferation preincubated for 1 hr followed by compound addition measured after 1 hrs by Cell Titer-Glo assay; format: functional, cell-based
Raji = experiment: Anticancer activity against human Raji cells assessed as inhibition of cell proliferation preincubated for 1 hr followed by compound addition measured after 1 hrs by Cell Titer-Glo assay; format: functional, cell-based
[8] = tested on: Panel NCI-60 (60 carcinoma cell lines); experiment: Anticancer activity against human Panel NCI-60 (60 carcinoma cell lines) assessed as inhibition of cell proliferation; format: functional
HCT-116 [9] = experiment: Anticancer activity against human HCT-116 cells assessed as inhibition of cell proliferation measured after 18 hrs by spectrophotometric analysis relative to control; format: functional
MCF7 [10] = experiment: Anticancer activity against human MCF7 cells assessed as inhibition of cell proliferation measured after 18 hrs by spectrophotometric analysis relative to control; format: functional
[11] = biological target: Tyrosine-protein kinase JAK2 (Homo sapiens, UniProt O60674); experiment: Inhibition of human JAK2 using biotin as a substrate preincubated for 5 mins followed by substrate addition incubated for 30 mins in presence of ATP by fluorescence based assay
MCF7 [12] = experiment: Anticancer activity against human MCF7 cells assessed as inhibition of cell proliferation measured after 24 hrs by MTT based microplate ELISA reader analysis; format: functional; conditions: MCF7, 24 h
[13] = Inhibition of KDM (unknown origin) incubated for 30 mins in presence of ATP by ELISA assay; parameters: species or system Homo sapiens
[14] = Anticancer activity against human MINO cells assessed as inhibition of cell proliferation measured after 72 hrs by Cell Titer-Glo Luminescent; format: functional, cell-based
JeKo-1 = experiment: Anticancer activity against human JeKo-1 cells assessed as inhibition of cell proliferation measured after 72 hrs by Cell Titer-Glo Luminescent; format: functional, cell-based; conditions: JeKo-1, 72 h
Z-138 = experiment: Anticancer activity against human Z138 cells assessed as inhibition of cell proliferation measured after 72 hrs by Cell Titer-Glo Luminescent; format: functional, cell-based; conditions: Z-138, 72 h
MCF7 [15] = experiment: Anticancer activity against human MCF7 cells assessed as inhibition of cell proliferation measured after 48 hrs by MTT assay; format: functional, cell-based; conditions: MCF7, 48 h
HepG2 [16] = experiment: Anticancer activity against human HepG2 cells assessed as inhibition of cell proliferation measured after 72 hrs by SRB calorimetric assay; format: functional, cell-based; conditions: HepG2, 72 h
MCF7 [17] = experiment: Cell cycle arrest in human MCF7 cells assessed as accumulation at G2/M phase measured after 48 hrs by […] propidium iodide staining based flow cytometry analysis; format: functional; conditions: MCF7, 48 h
[18] = biological target: Epidermal growth factor receptor (Homo sapiens, UniProt P00533); experiment: Inhibition of EGFR (unknown origin) by EGFR Kinase Assay Kit method
[19] = biological target: cGMP-specific 3',5'-cyclic phosphodiesterase (Homo sapiens, UniProt O76074); experiment: Inhibition of PDE5 (unknown origin)
HeLa [20] = experiment: Anticancer activity against human HeLa cells assessed as inhibition of cell proliferation measured after 24 hrs by MTT based microplate ELISA reader analysis; format: functional
A549 = experiment: Anticancer activity against human A549 cells assessed as inhibition of cell proliferation measured after 48 hrs by MTT assay based microtiter plate analysis; format: functional; conditions: A549, 48 h

Tyrosine-protein kinase JAK2, sequence (O60674 whole entry): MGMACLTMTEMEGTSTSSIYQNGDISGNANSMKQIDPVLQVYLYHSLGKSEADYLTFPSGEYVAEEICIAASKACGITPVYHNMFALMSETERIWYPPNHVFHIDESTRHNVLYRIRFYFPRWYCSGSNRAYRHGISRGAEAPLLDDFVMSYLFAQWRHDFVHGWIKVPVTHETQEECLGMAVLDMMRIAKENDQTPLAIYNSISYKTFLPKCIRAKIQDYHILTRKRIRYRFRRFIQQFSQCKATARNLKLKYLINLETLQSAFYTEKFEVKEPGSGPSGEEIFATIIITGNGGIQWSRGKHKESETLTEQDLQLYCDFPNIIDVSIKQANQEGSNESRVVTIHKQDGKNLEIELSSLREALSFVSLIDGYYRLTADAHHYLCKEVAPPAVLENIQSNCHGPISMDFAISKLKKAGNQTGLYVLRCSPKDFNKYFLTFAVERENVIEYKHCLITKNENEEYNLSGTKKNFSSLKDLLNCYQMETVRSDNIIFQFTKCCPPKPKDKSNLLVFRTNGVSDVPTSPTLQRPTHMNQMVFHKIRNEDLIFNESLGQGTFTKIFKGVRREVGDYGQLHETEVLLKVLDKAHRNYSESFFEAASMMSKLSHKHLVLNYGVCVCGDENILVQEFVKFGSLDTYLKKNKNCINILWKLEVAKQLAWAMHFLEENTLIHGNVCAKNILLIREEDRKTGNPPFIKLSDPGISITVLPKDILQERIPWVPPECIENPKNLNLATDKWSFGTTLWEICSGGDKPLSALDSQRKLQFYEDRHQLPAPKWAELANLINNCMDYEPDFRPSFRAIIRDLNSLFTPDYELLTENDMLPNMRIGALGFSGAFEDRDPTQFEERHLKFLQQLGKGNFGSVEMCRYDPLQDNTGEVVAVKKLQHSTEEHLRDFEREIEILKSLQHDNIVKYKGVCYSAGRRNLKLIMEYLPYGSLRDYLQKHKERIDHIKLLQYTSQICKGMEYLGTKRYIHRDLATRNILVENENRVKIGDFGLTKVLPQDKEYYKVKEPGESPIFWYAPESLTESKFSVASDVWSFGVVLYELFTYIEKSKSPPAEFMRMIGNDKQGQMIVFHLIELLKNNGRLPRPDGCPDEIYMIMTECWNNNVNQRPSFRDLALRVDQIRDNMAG
Epidermal growth factor receptor, sequence (P00533 whole entry): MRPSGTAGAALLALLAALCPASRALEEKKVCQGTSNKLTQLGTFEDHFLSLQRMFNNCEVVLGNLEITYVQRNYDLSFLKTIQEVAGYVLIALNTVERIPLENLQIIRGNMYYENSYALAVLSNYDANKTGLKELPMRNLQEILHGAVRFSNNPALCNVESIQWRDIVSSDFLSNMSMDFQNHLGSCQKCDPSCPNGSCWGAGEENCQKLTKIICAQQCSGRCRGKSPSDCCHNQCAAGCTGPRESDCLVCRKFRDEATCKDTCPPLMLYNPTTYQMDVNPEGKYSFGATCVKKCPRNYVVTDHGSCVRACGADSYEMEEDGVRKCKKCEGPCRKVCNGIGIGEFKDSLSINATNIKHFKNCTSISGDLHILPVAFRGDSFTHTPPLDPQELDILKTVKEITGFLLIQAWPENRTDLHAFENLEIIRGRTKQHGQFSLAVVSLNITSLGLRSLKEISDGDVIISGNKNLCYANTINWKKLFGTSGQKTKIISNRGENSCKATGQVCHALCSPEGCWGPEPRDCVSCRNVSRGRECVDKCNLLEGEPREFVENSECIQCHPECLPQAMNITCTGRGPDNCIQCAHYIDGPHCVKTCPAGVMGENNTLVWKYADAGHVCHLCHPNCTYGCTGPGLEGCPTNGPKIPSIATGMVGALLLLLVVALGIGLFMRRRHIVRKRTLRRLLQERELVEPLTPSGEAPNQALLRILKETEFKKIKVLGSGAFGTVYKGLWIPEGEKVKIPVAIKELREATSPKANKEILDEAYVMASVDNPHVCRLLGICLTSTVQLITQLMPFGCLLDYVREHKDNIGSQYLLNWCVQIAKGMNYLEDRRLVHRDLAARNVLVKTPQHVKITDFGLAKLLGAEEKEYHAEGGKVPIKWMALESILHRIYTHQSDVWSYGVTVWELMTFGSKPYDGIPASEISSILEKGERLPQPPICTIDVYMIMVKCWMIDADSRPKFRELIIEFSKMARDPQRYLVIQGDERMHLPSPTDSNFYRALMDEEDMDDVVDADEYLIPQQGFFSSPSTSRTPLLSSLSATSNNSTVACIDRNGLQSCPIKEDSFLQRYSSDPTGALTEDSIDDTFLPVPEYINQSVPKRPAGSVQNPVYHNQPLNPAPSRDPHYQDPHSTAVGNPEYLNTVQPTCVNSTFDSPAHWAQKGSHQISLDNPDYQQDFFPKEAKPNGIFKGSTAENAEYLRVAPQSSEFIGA
Tyrosine-protein kinase BTK, sequence (Q06187 whole entry): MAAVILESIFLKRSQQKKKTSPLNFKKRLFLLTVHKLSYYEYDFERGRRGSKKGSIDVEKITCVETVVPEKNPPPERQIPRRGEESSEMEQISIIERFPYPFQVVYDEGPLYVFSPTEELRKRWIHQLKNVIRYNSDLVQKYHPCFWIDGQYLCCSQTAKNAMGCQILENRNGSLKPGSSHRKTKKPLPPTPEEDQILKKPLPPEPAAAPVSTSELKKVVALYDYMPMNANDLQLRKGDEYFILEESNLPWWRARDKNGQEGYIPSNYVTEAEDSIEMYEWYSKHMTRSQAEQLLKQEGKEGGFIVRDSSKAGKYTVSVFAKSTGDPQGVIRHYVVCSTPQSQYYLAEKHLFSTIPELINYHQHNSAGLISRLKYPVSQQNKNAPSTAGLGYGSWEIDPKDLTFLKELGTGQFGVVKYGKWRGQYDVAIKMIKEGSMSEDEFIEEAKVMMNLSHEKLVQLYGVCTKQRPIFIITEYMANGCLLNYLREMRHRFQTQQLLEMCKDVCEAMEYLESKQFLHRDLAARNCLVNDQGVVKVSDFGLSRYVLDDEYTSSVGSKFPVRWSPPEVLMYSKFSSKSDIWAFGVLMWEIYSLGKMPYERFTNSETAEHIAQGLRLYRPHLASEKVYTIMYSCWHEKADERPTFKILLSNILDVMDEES

Nc1ncnc2c1c(-c1ccc(Oc3ccccc3)nc1)nn2C1CCCN(C(=O)CCl)C1 (centres undefined)
IC50 (Maver1): < 1 µM

CCNc1nn2c(-c3ccccc3)cc(=O)[nH]c2c1C(=O)Nc1ccc([N+](=O)[O-])cc1
IC50 (HCT-116 [1]): 1.51 µM

Nc1nc(Cl)c2cnn(Cc3ccc(Br)cc3F)c2n1
IC50 (MCF7 [2]): 13.9 µM
IC50 (HeLa [3]): 22.4 µM

CCOC(=O)C1=C(C)n2nc(CC#N)c(C#N)c2NC1c1ccccc1 (centres undefined)
IC50 (HT-29): 8.12 µM
IC50 (KB): 7.58 µM
IC50 (HepG2 [4]): 4.41 µM

CCOC(=O)C1=C(C)n2nc(CC#N)c(C#N)c2NC1c1ccc(N(C)C)cc1 (centres undefined)
IC50 (HT-29): 9.23 µM
IC50 (KB): 8.31 µM
IC50 (HepG2 [4]): 9.41 µM

CSc1c(C#N)c(N)nc2c(/N=N/N3C(=O)c4ccccc4C3=O)c(O)nn12
IC50 (MCF7 [2]): 4.17 µM
IC50 (HeLa [3]): 5.57 µM
IC50 (HepG2 [5]): 5.6 µg/mL (≈ 14.2 µM)

CCOC(=O)C1=C(C)n2nc(CC#N)c(C#N)c2NC1c1cc(Br)ccc1O (centres undefined)
IC50 (HT-29): 5.62 µM
IC50 (KB): 6.94 µM
IC50 (HepG2 [4]): 9.64 µM

CSc1nc(-c2ccco2)c2c(N)n[nH]c2n1
IC50 (KM12): 1.73 µM
selectivity ratio [6]: 18.8

C=CC(=O)N1CCCC(N2NC(c3cc(C(C)(C)O)n(C)n3)c3c(N)ncnc32)C1 (centres undefined)
IC50 [7]: 0.00795 µM
IC50 (Ramos): 8.91 µM
IC50 (Raji): 1.8 µM

Nc1ncnc2c1c(Cc1c[nH]c3ccccc13)nn2CC1CCNCC1
GI50 [8]: 0.019 µM

Cc1nn(-c2ccccc2)c2nc(C)n(Cc3cn(-c4ccc(Cl)cc4)nn3)c(=O)c12
inhibition (INH) (HCT-116 [9]): 75.4%
inhibition (INH) (MCF7 [10]): 75.4%

Cn1nc(C2NN(C3CCCN(C(=O)CC#N)C3)c3ncnc(N)c32)cc1C(C)(C)O (centres undefined)
IC50 [11]: 0.008 µM

C=CC(=O)N1CCC(N2NC(c3cc(C(C)(C)O)n(C)n3)c3c(N)ncnc32)C1 (centres undefined)
IC50 [11]: 0.0072 µM

N#Cc1c(-c2ccccc2)nn2c(-c3cccc4ccccc34)ccnc12
IC50 (MCF7 [12]): 3 µM

Cc1cc(=O)n2nc(CC#N)c(C#N)c2[nH]1
IC50 [13]: 4.05 µM

O=C(NCc1cc(C(F)(F)F)cc(C(F)(F)F)c1)NC1CCN(c2ncnc3[nH]ncc23)CC1
IC50 [14]: < 1 µM
IC50 (JeKo-1): < 1 µM
IC50 (Z-138): < 1 µM

CC1=CC(C)Nc2c(C(=O)Nc3c(C)cccc3C)c(Nc3ccccc3)nn21 (centres undefined)
IC50 (MCF7 [15]): 7.68 µM

Cn1nc(C2NN(C3CCCN(C(=O)CC#N)C3)c3ncnc(N)c32)cc1C=O (centres undefined)
IC50 [11]: 0.0097 µM

Cc1cc(=O)n2nc(/C(C#N)=C\c3ccco3)c(C#N)c2[nH]1
IC50 [13]: 1.91 µM

CSc1nc(-c2cccs2)c2c(N)n[nH]c2n1
IC50 (KM12): 1.21 µM
selectivity ratio [6]: 35.5

COc1ccc(C2c3c(-c4ccccc4)n[nH]c3Nc3[nH]c(=S)[nH]c(=S)c32)cc1 (centres undefined)
IC50 (HepG2 [16]): 9.2 µM

COc1cc(/C=C(/C#N)c2nn3c(=O)cc(C)[nH]c3c2C#N)ccc1O
IC50 [13]: 2.31 µM
IC50 (MCF7 [17]): 1.91 µM

COc1nc2ccccc2cc1-c1nc2c(cnn2-c2ccc(Br)cc2)c(=O)[nH]1
IC50 (MCF7 [2]): 6.56 µM
IC50 (HeLa [3]): 8.72 µM
IC50 [18]: 5.83 µM
IC50 [19]: 1.57 µM

COc1ccc(-c2c(C#N)cnc3c(C#N)c(-c4ccccc4)nn23)cc1
IC50 (HeLa [20]): 7.8 µM

COc1cccc2c1C(=O)c1c(O)c3c(c(O)c1C2=O)C[C@@](O)(C(=O)CO)C[C@@H]3O[C@H]1C[C@H](N)[C@H](O)[C@H](C)O1 [DOXORUBICIN]
IC50 (HeLa [20]): 8.1 µM
IC50 (MCF7 [12]): 5.9 µM

C#Cc1cccc(Nc2ncnc3cc(OCCOC)c(OCCOC)cc23)c1 [ERLOTINIB]
IC50 (A549): 11.7 µM

O=c1[nH]cc(F)c(=O)[nH]1 [FLUOROURACIL]
IC50 (KM12): 12.3 µM
selectivity ratio [6]: 1.93
